Literature values in patent US20220339088A1, “METHOD FOR DYEING KERATIN MATERIAL, COMPRISING THE USE OF AN ORGANIC C1-C6 ALKOXY SILANE AND AN ACIDIFIER” (Henkel AG & Co. KGaA, priority 2019, published 2022).

Details: 25° C.

For `O=S(=O)([O-])c1ccc(N=Nc2c(O)ccc3ccccc23)cc1.[Na+]` [Acid Orange 7, sodium salt of 4-[(2-hydroxy-1-naphthyl)azo]benzene sulphonate], which solubility in water is on record?
The solubility in water was “more than 7 g/L”.

For `Nc1cc(S(=O)(=O)[O-])cc2cc(S(=O)(=O)[O-])c(N=Nc3ccccc3)c(O)c12.[Na+].[Na+]` [Acid Red 33, diantrium salt of 5-amino-4-hydroxy-3-(phenylazo)-naphthalene-2,7-disulphonate], which solubility in water is on record?
Its solubility in water is 2500 µg/mL.

With `O=C([O-])c1c(Cl)c(Cl)c(Cl)c(Cl)c1-c1c2c(Br)cc(=O)c(Br)c-2oc2c(Br)c(O)cc(Br)c12.O=C([O-])c1c(Cl)c(Cl)c(Cl)c(Cl)c1-c1c2c(Br)cc(=O)c(Br)c-2oc2c(Br)c(O)cc(Br)c12.[Na+].[Na+]` [Acid Red 92, disodium salt of 3,4,5,6-tetrachloro-2-(1,4,5,8-tetrabromo-6-hydroxy-3-oxoxanthen-9-yl)benzoic acid] as the compound, how does the solubility in water read?
The solubility in water was “greater than 10 g/L”.

For `O=C([O-])C1=NN(c2ccc(S(=O)(=O)[O-])cc2)C(=O)C1N=Nc1ccc(S(=O)(=O)[O-])cc1.[Na+].[Na+].[Na+]` (stereo not shown) [Acid Yellow 23, trisodium salt of 4,5-dihydro-5-oxo-1-(4-sulfophenyl)-4-((4-sulfophenyl)azo)-1H-pyrazole-3-carboxylic acid], which “solubility in water (in words)” value is on record?
The value was “highly soluble”.
